Test results taken from ChEMBL document CHEMBL4330132, “5-Keto-3-cyano-2,4-diaminothiophenes as selective maternal embryonic leucine zipper kinase inhibitors” (Bioorg Med Chem Lett, 2019).

What was measured:
[1] = biological target: NUAK family SNF1-like kinase 1 (Homo sapiens) (UniProt O60285); test: Binding affinity to wild-type human partial length ARK5 (E25 to I332 residues) expressed in bacterial expression system assessed as residual binding level at 1 uM by Kinomescan method relative to control
[2] = biological target: Calcium/calmodulin-dependent protein kinase type 1 (Homo sapiens) (UniProt Q14012); test: Binding affinity to wild-type human full length CAMK1 (M1 to L370 residues) expressed in bacterial expression system assessed as residual binding level at 1 uM by Kinomescan method relative to control
[3] = biological target: Calcium/calmodulin-dependent protein kinase kinase 2 (Homo sapiens) (UniProt Q96RR4); test: Binding affinity to wild-type human partial length CAMKK2 (D65 to V471 residues) expressed in bacterial expression system assessed as residual binding level at 1 uM by Kinomescan method relative to control
[4] = biological target: Cyclin-dependent kinase 11A (Homo sapiens) (UniProt Q9UQ88); test: Binding affinity to wild-type human partial length CDC2L2 (D391 to K730 residues) expressed in bacterial expression system assessed as residual binding level at 1 uM by Kinomescan method relative to control
[5] = biological target: Dual specificity protein kinase CLK3 (Homo sapiens) (UniProt P49761); test: Binding affinity to wild-type human full length CLK3 (M1 to R490 residues) expressed in bacterial expression system assessed as residual binding level at 1 uM by Kinomescan method relative to control
[6] = biological target: Dual specificity tyrosine-phosphorylation-regulated kinase 2 (Homo sapiens) (UniProt Q92630); test: Binding affinity to wild-type human full length DYRK2 (M1 to S528 residues) expressed in mammalian expression system assessed as residual binding level at 1 uM by Kinomescan method relative to control
[7] = biological target: Ephrin type-B receptor 2 (Homo sapiens) (UniProt P29323); test: Binding affinity to wild-type human partial length EPHB2 (I597 to L902 residues) expressed in bacterial expression system assessed as residual binding level at 1 uM by Kinomescan method relative to control
[8] = biological target: Mitogen-activated protein kinase 15 (Homo sapiens) (UniProt Q8TD08); test: Binding affinity to wild-type human partial length ERK8 (M1 to P437 residues) expressed in bacterial expression system assessed as residual binding level at 1 uM by Kinomescan method relative to control
[9] = biological target: Tyrosine-protein kinase Fgr (Homo sapiens) (UniProt P09769); test: Binding affinity to wild-type human partial length FGR (L233 to T529 residues) expressed in bacterial expression system assessed as residual binding level at 1 uM by Kinomescan method relative to control
[10] = biological target: Tyrosine-protein kinase FRK (Homo sapiens) (UniProt P42685); test: Binding affinity to wild-type human partial length FRK (A215 to F503 residues) expressed in bacterial expression system assessed as residual binding level at 1 uM by Kinomescan method relative to control
[11] = system: eIF-2-alpha kinase GCN2 (Homo sapiens), Q9P2K8 [S808G]; test: Binding affinity to wild-type human partial length GCN2 kinase domain 2 (R585 to T1018 residues) S808G mutant expressed in bacterial expression system assessed as residual binding level at 1 uM by Kinomescan method relative to control
[12] = biological target: Serine/threonine-protein kinase STK11 (Homo sapiens) (UniProt Q15831); test: Binding affinity to wild-type human full length LKB1 (M1 to Q433 residues) expressed in bacterial expression system assessed as residual binding level at 1 uM by Kinomescan method relative to control
[13] = system: Leucine-rich repeat serine/threonine-protein kinase 2 (Homo sapiens), Q5S007 [G2019S]; test: Binding affinity to human partial length LRRK2 G2019S mutant (H970 to E2527 residues) expressed in mammalian expression system assessed as residual binding level at 1 uM by Kinomescan method relative to control
[14] = biological target: Mitogen-activated protein kinase kinase kinase 15 (Homo sapiens) (UniProt Q6ZN16); test: Binding affinity to wild-type human partial length MAP3K15 (T625 to L932 residues) expressed in mammalian expression system assessed as residual binding level at 1 uM by Kinomescan method relative to control
[15] = biological target: Muscle, skeletal receptor tyrosine-protein kinase (Homo sapiens) (UniProt O15146); test: Binding affinity to wild-type human partial length MUSK (M553 to V869 residues) expressed in bacterial expression system assessed as residual binding level at 1 uM by Kinomescan method relative to control
[16] = biological target: Serine/threonine-protein kinase Nek7 (Homo sapiens) (UniProt Q8TDX7); test: Binding affinity to wild-type human full length NEK7 (M1 to S302 residues) expressed in bacterial expression system assessed as residual binding level at 1 uM by Kinomescan method relative to control
[17] = biological target: Protein kinase C delta type (Homo sapiens) (UniProt Q05655); test: Binding affinity to wild-type human partial length PRKCD (Q328 to D676 residues) expressed in bacterial expression system assessed as residual binding level at 1 uM by Kinomescan method relative to control
[18] = biological target: cGMP-dependent protein kinase 2 (Homo sapiens) (UniProt Q13237); test: Binding affinity to wild-type human partial length PRKG2 (S422 to F762 residues) expressed in mammalian expression system assessed as residual binding level at 1 uM by Kinomescan method relative to control
[19] = biological target: Serine/threonine-protein kinase RIO3 (Homo sapiens) (UniProt O14730); test: Binding affinity to wild-type human full length RIOK3 (M1 to E519 residues) expressed in bacterial expression system assessed as residual binding level at 1 uM by Kinomescan method relative to control
[20] = biological target: Serine/threonine-protein kinase TAO1 (Homo sapiens) (UniProt Q7L7X3); test: Binding affinity to wild-type human partial length TAOK1 (M1 to A320 residues) expressed in mammalian expression system assessed as residual binding level at 1 uM by Kinomescan method relative to control
[21] = biological target: Serine/threonine-protein kinase TNNI3K (Homo sapiens) (UniProt Q59H18); test: Binding affinity to wild-type human full length TNNI3K (M1 to S835 residues) expressed in bacterial expression system assessed as residual binding level at 1 uM by Kinomescan method relative to control
[22] = biological target: BDNF/NT-3 growth factors receptor (Homo sapiens) (UniProt Q16620); test: Binding affinity to wild-type human partial length TRKB (Q547 to G838 residues) expressed in mammalian expression system assessed as residual binding level at 1 uM by Kinomescan method relative to control
[23] = biological target: Non-receptor tyrosine-protein kinase TYK2 (Homo sapiens) (UniProt P29597); test: Binding affinity to wild-type human partial length TYK2 JH2 pseudokinase domain (G556 to D888 residues) expressed in mammalian expression system assessed as residual binding level at 1 uM by Kinomescan method relative to control
[24] = biological target: Serine/threonine-protein kinase VRK2 (Homo sapiens) (UniProt Q86Y07); test: Binding affinity to wild-type human partial length VRK2 (M1 to T336 residues) expressed in mammalian expression system assessed as residual binding level at 1 uM by Kinomescan method relative to control

Chain of Mitogen-activated protein kinase kinase kinase 15 (Homo sapiens) (Q6ZN16 whole entry, the tested form may be a part): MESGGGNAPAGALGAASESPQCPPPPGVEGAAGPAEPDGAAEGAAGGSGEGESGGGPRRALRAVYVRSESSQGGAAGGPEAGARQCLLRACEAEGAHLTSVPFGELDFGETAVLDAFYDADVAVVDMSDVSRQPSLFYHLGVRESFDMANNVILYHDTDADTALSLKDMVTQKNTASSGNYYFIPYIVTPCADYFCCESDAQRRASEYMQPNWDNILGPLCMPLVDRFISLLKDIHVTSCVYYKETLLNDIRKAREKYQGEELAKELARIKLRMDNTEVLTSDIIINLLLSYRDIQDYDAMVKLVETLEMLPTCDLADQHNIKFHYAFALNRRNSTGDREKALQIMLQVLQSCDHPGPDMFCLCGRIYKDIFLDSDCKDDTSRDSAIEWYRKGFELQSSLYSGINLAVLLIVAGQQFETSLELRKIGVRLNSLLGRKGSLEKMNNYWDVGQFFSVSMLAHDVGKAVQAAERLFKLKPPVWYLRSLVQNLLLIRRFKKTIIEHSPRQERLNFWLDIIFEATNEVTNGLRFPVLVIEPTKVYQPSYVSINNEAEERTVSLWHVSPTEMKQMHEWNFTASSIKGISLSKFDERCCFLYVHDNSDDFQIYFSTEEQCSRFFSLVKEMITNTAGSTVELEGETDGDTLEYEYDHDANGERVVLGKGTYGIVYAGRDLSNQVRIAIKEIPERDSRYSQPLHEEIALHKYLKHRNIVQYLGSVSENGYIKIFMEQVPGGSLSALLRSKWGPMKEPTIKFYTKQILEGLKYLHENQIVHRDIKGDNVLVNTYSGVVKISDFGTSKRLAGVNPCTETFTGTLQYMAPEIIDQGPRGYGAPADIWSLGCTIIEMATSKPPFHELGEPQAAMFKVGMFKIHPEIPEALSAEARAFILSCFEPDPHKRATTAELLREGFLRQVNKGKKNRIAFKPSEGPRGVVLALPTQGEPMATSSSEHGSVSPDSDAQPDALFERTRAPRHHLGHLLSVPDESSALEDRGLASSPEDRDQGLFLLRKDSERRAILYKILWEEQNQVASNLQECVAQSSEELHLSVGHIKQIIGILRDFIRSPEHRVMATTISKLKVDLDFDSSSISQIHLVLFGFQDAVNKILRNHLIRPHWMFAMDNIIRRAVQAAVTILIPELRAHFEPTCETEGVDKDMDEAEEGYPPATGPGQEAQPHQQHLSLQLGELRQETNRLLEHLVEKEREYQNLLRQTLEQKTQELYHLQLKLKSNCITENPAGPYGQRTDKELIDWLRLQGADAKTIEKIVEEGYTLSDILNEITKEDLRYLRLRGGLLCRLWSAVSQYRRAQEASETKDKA
Chain of Tyrosine-protein kinase FRK (Homo sapiens) (P42685 whole entry, the tested form may be a part): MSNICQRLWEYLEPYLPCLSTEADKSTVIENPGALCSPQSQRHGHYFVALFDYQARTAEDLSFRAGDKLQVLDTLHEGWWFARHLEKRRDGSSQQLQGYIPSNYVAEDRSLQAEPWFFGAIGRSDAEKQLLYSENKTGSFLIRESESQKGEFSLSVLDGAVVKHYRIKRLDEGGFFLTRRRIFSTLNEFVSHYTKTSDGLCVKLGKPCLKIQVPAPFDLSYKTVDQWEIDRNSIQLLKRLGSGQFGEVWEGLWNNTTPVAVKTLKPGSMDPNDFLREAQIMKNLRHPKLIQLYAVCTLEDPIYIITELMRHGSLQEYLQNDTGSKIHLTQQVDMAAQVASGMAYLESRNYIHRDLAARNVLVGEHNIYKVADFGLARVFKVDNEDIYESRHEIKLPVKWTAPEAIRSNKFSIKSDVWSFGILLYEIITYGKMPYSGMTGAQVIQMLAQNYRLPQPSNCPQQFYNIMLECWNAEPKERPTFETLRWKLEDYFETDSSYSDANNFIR
Chain of BDNF/NT-3 growth factors receptor (Homo sapiens) (Q16620 32-822 limits assumed): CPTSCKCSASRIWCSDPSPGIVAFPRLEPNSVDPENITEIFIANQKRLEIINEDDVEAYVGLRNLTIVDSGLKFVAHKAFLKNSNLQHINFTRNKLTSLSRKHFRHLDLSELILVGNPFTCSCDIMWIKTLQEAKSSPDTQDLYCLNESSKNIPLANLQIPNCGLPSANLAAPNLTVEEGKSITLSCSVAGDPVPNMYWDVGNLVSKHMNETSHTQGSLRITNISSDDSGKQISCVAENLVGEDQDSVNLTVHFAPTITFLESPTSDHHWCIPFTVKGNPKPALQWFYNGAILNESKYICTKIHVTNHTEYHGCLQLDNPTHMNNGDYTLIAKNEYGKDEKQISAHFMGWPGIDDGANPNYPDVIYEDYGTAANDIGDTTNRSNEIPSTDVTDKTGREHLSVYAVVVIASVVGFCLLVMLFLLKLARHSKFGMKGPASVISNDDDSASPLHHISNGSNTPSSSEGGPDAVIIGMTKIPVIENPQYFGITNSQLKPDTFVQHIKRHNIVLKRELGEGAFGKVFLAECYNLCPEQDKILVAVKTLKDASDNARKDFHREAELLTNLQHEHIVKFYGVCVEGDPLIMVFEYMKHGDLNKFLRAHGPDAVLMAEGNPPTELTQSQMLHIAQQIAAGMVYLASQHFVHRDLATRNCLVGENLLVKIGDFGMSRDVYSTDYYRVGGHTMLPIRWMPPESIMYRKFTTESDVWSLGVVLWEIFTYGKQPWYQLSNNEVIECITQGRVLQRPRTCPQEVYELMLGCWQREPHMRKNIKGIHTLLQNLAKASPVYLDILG
Chain of Serine/threonine-protein kinase RIO3 (Homo sapiens) (O14730 whole entry, the tested form may be a part): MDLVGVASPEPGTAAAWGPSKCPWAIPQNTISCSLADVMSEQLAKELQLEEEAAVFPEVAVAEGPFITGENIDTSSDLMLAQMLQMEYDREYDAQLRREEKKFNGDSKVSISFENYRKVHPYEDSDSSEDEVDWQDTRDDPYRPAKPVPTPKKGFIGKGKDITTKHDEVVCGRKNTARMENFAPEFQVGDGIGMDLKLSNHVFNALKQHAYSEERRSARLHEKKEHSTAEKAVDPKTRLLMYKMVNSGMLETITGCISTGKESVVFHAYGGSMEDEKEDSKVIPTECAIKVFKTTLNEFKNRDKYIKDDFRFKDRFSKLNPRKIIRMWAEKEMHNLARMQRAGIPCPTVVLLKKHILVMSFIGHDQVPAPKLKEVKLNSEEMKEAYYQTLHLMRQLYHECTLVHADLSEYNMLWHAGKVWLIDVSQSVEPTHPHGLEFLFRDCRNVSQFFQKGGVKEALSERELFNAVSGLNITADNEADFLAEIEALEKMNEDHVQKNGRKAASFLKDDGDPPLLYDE
Chain of Cyclin-dependent kinase 11A (Homo sapiens) (Q9UQ88 whole entry, the tested form may be a part): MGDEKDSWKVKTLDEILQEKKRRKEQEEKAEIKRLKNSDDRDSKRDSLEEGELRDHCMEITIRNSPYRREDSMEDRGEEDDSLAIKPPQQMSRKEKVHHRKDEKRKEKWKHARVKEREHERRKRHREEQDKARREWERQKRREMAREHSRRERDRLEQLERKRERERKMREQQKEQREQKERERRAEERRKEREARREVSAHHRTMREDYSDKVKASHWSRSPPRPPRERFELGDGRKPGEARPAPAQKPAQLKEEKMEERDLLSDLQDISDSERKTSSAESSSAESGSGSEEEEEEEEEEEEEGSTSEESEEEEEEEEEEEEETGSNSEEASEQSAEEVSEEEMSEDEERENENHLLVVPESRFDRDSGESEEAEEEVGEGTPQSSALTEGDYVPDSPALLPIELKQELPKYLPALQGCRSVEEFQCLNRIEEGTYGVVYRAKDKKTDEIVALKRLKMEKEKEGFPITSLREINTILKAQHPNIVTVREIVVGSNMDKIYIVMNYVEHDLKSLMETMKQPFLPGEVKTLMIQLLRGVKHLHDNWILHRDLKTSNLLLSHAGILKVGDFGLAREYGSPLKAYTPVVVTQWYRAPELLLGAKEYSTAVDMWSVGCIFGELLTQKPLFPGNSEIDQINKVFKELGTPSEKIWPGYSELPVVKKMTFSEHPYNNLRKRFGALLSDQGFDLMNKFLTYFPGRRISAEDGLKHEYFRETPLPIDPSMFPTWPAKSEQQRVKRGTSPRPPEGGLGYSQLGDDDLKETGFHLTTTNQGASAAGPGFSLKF
Chain of Serine/threonine-protein kinase TAO1 (Homo sapiens) (Q7L7X3 whole entry, the tested form may be a part): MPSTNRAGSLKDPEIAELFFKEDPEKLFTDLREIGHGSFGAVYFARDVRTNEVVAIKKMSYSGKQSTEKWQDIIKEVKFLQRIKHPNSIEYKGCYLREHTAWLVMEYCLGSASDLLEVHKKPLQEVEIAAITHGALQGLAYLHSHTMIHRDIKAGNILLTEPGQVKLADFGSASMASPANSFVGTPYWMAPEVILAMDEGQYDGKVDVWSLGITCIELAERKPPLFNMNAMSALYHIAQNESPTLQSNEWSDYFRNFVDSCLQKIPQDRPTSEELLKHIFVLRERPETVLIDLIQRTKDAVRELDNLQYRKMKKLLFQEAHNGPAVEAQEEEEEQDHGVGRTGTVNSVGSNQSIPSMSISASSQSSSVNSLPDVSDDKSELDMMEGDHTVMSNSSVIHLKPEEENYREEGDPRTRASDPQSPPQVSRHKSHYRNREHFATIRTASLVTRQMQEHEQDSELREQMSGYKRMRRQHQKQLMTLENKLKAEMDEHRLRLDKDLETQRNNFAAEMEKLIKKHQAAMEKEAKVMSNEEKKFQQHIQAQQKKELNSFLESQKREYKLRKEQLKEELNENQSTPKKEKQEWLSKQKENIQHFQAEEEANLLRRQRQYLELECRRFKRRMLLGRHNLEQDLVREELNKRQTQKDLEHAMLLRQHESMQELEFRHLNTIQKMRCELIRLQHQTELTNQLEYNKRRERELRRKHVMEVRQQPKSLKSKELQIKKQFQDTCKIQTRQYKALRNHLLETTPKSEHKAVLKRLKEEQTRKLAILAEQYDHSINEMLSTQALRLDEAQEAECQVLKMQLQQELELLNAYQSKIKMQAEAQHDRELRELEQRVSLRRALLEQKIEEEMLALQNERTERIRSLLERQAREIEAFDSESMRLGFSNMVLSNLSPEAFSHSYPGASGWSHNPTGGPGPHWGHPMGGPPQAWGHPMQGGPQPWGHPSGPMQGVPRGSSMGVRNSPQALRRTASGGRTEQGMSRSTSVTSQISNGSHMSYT

How did the Activity [1] turn out when `CC(C)Nc1sc(C(=O)c2ccc(Cl)s2)c(N)c1C#N` was run?
The Activity was 82%.

And the Activity [2]?
The Activity was 91%.

What about the Activity [3] of the same compound?
Its Activity is 76%.

And the Activity [4]?
The Activity was 100%.

And the Activity [5]?
The Activity was 74%.

And the Activity [6]?
Its Activity is 100%.

What about the Activity [7] of the same compound?
Its Activity is 79%.

And the Activity [8]?
The Activity was 82%.

What about the Activity [9] of the same compound?
The Activity was 97%.

What about the Activity [10] of the same compound?
The Activity was 76%.

And the Activity [11]?
The Activity was 45%.

What about the Activity [12] of the same compound?
The Activity was 89%.

And the Activity [13]?
Its Activity is 79%.

And the Activity [14]?
Its Activity is 100%.

And the Activity [15]?
Its Activity is 76%.

What about the Activity [16] of the same compound?
Its Activity is 84%.

And the Activity [17]?
Its Activity is 72%.

What about the Activity [18] of the same compound?
The Activity was 100%.

What about the Activity [19] of the same compound?
Its Activity is 38%.

What about the Activity [20] of the same compound?
The Activity was 100%.

What about the Activity [21] of the same compound?
Its Activity is 75%.

What about the Activity [22] of the same compound?
Its Activity is 70%.

And the Activity [23]?
Its Activity is 100%.

And the Activity [24]?
Its Activity is 100%.
